Laboratory results taken from patent US20190315823A1, “SMALL CATIONIC ANTI-BIOFILM AND IDR PEPTIDES” (priority 2013, published 2019).
Ends that are not written are not given here.

Key:
[1] = system: methicillin resistant Staphylococcus aureus (MRSA) biofilm; settings: approximate peptide concentration […] (around 3 μg/ml); compared to untreated samples
Summary of the method: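 Peptide was present from inoculation onward, with bacteria seeded at 1/100 from overnight cultures into BM2 biofilm medium or Luria Broth. Crystal violet staining of surface-attached cells (A595) quantified biofilm reduction at 22–46 h. K. pneumoniae was additionally screened in a real-time Bioflux flow device for some peptides.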

[2] = system: human peripheral blood mononuclear cells (MCP-1); experiment: SPOT-synthesized derivative screen: production of chemokine MCP-1; type: cell-based; settings: Table 12, No LPS, human PBMC, peptide at ~18-24 μM; for MCP1: background subtracted 139 (HH2 derivatives), 170 (1018 derivatives), 242 (1002 and hybrid peptides) pg/ml
Summary of the method: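 MCP-1 was quantified by capture ELISA in cleared culture supernatants of treated human peripheral blood mononuclear cells. Cells came from heparinized volunteer blood via Ficoll gradient and were seeded at 0.75 to 1×10^6 cells/ml (37 °C, 5% CO2).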

[3] = system: LPS-stimulated human peripheral blood mononuclear cells (IL1-β); type: cell-based; settings: Table 12, cells stimulated with 10 ng/ml LPS; for IL1β Production: LPS alone 1313 (HH2 derivatives), 1927 (1018 derivatives), 2455 (1002 and hybrid peptides) pg/ml

Substance | % Biofilm inhibition [1] | Fold increase in MCP1 cf. untreated cells [2] | MCP1 [2] | Fold change in IL1β relative to no peptide LPS stimulated cells [3] | IL1β Production [3]
1002-I11: single substituted 1002 peptide (VQRWLIVWRIIK-NH2) [Peptide 1002-I11] | 67% | 2.0 | 238.8 pg/mL | 0.05 | 127 pg/mL
HH2-I7: single substituted HH2 peptide (VQLRIRIAVIRA-NH2) | 69% | 8.8 | 1332 pg/mL | 0.68 | 897 pg/mL
1018-L12: single substituted 1018 peptide (VRLIVAVRIWRL-NH2) [Peptide 1018-L12] | 44% | 1.2 | 29 pg/mL | 0.17 | 220 pg/mL
1018-W11: single substituted 1018 peptide (VRLIVAVRIWWR-NH2) [Peptide 1018-W11] | 53% | 0.8 | -28 pg/mL | 0.62 | 814 pg/mL
1002-R1: single substituted 1002 peptide (RQRWLIVWRIRK-NH2) [Peptide 1002-R1] | 67% | 5.3 | 1043.2 pg/mL | 0.05 | 127 pg/mL
HH2-G1: single substituted HH2 peptide (GQLRIRVAVIRA-NH2) | 65% | 1.9 | 157 pg/mL | 1.17 | 1533 pg/mL
1002-I9: single substituted 1002 peptide (VQRWLIVWIIRK-NH2) [Peptide 1002-I9] | 53% | 3.5 | 605.9 pg/mL | 0.06 | 158 pg/mL
1002-V10: single substituted 1002 peptide (VQRWLIVWRVRK-NH2) [Peptide 1002-V10] | 63% | 2.3 | 308.0 pg/mL | 0.05 | 127 pg/mL
HH2-K6: single substituted HH2 peptide (VQLRIKVAVIRA-NH2) | 64% | 142 | 23989 pg/mL | 0.80 | 1055 pg/mL
1018-Q2: single substituted 1018 peptide (VQLIVAVRIWRR-NH2) [Peptide 1018-Q2] | 52% | 3.5 | 422 pg/mL | 0.10 | 127 pg/mL
1002-L8: single substituted 1002 peptide (VQRWLIVLRIRK-NH2) [Peptide 1002-L8] | 57% | 10.8 | 2367.1 pg/mL | 0.06 | 135 pg/mL
1018-K1: single substituted 1018 peptide (KRLIVAVRIWRR-NH2) [Peptide 1018-K1] | 49% | 1.2 | 40 pg/mL | 0.13 | 173 pg/mL
HH2-W11: single substituted HH2 peptide (VQLRIRVAVIWA-NH2) | 45% | 15 | 2309 pg/mL | 1.04 | 1362 pg/mL
1002-A8: single substituted 1002 peptide (VQRWLIVARIRK-NH2) [Peptide 1002-A8] | 52% | 0.9 | -36.2 pg/mL | 0.09 | 219 pg/mL
HH2-R10: single substituted HH2 peptide (VQLRIRVAVRRA-NH2) | 73% | 5.1 | 701 pg/mL | 1.53 | 2003 pg/mL
1002-W6: single substituted 1002 peptide (VQRWLWVWRIRK-NH2) [Peptide 1002-W6] | 53% | 0.9 | -36.2 pg/mL | 0.05 | 127 pg/mL
1018-K11: single substituted 1018 peptide (VRLIVAVRIWKR-NH2) [Peptide 1018-K11] | 68% | 9.3 | 1419 pg/mL | 0.13 | 170 pg/mL
1002-Q3: single substituted 1002 peptide (VQQWLIVWRIRK-NH2) [Peptide 1002-Q3] | 70% | 2.4 | 343.8 pg/mL | 0.05 | 127 pg/mL
1018-A1: single substituted 1018 peptide (ARLIVAVRIWRR-NH2) [Peptide 1018-A1] | 51% | 1.9 | 161 pg/mL | 0.13 | 170 pg/mL
1002-I8: single substituted 1002 peptide (VQRWLIVIRIRK-NH2) [Peptide 1002-I8] | 69% | 6.7 | 1393.2 pg/mL | 0.06 | 144 pg/mL
HH2-G7: single substituted HH2 peptide (VQLRIRGAVIRA-NH2) | 33% | 1.5 | 78 pg/mL | 1.02 | 1344 pg/mL
1018-Q7: single substituted 1018 peptide (VRLIVAQRIWRR-NH2) [Peptide 1018-Q7] | 28% | 0.7 | -54 pg/mL | 1.04 | 1368 pg/mL
1018-K5: single substituted 1018 peptide (VRLIKAVRIWRR-NH2) [Peptide 1018-K5] | 29% | 0.9 | -10 pg/mL | 1.31 | 1722 pg/mL
HH2-Q8: single substituted HH2 peptide (VQLRIRVQVIRA-NH2) | 65% | 9.4 | 1421 pg/mL | 0.97 | 1279 pg/mL
1018-R1: single substituted 1018 peptide (RRLIVAVRIWRR-NH2) [Peptide 1018-R1] | 46% | 5.9 | 832 pg/mL | 0.13 | 176 pg/mL
